Earlier results as cited in patent US12648940B2, “Bupivacaine liquid formulations” (FRESENIUS KABI AUSTRIA GMBH, priority 2023, dated 2026).

pKa: approximately 8.1
pKa of the amine of the piperidine group (at 25° C.): ~8.1
Compound: CCCCN1CCCCC1C(=O)Nc1c(C)cccc1C (centres unmarked) [Bupivacaine, 1-butyl-N-(2,6-dimethylphenyl)piperidine-2-carboxamide]
